pIC50: −log10 of the molar value. Like-named read-outs stand apart in the source and are kept apart here.
How the values were obtained:
Experiment in all cases: SelectScreen kinase assay
Format in all cases: biochemical
Aurora-B_h = Aurora-B_h (Homo sapiens, UniProt Q96GD4)
Summary of the method: (§1)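 A single 3 µM compound concentration was tested against each kinase in Z'-Lyte or Adapta assays, with ATP at KM, 10 or 100 µM as indicated, and activity normalised to DMSO-only wells.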

Aurora-C_h = molecular target: T1, Aurora-C_h (Homo sapiens, UniProt Q9UQB9); details: KM ATP, read-out: % control
T1 construct: purchased Life Technologies (Invitrogen) SelectScreen, Z'-LYTE / Adapta
Summary of the method: as §1

BRAF = molecular target: T2, BRAF (Homo sapiens, UniProt P15056); details: 100 µM ATP, read-out: % control
T2 construct: purchased Life Technologies (Invitrogen) SelectScreen, Z'-LYTE / Adapta
Summary of the method: as §1

BTK_h = molecular target: T3, BTK_h (Homo sapiens, UniProt Q06187); details: KM ATP, read-out: % control
T3 construct: purchased Life Technologies (Invitrogen) SelectScreen, Z'-LYTE / Adapta
Summary of the method: as §1

CDK7_h = molecular target: T4, CDK7_h (Homo sapiens, UniProt P50613); details: KM ATP, read-out: % control
T4 construct: purchased Life Technologies (Invitrogen) SelectScreen, Z'-LYTE / Adapta
Summary of the method: as §1

CK1-epsilon_h = molecular target: T5, CK1-epsilon_h (Homo sapiens, UniProt P49674); details: KM ATP, read-out: % control
T5 construct: purchased Life Technologies (Invitrogen) SelectScreen, Z'-LYTE / Adapta
Summary of the method: as §1

CK1-gamma2_h = molecular target: T6, CK1-gamma2_h (Homo sapiens, UniProt P78368); details: KM ATP, read-out: % control
T6 construct: purchased Life Technologies (Invitrogen) SelectScreen, Z'-LYTE / Adapta
Summary of the method: as §1

CLK2_h = molecular target: T7, CLK2_h (Homo sapiens, UniProt P49760); details: KM ATP, read-out: % control
T7 construct: purchased Life Technologies (Invitrogen) SelectScreen, Z'-LYTE / Adapta
Summary of the method: as §1

CaMKII-alpha_h = molecular target: T8, CaMKII-alpha_h (Homo sapiens, UniProt Q9UQM7); details: KM ATP, read-out: % control
T8 construct: purchased Life Technologies (Invitrogen) SelectScreen, Z'-LYTE / Adapta
Summary of the method: as §1

DAPK1_h = molecular target: T9, DAPK1_h (Homo sapiens, UniProt P53355); details: KM ATP, read-out: % control
T9 construct: purchased Life Technologies (Invitrogen) SelectScreen, Z'-LYTE / Adapta
Summary of the method: as §1

FGFR2_h = molecular target: T10, FGFR2_h (Homo sapiens, UniProt P21802); details: KM ATP, read-out: % control
T10 construct: purchased Life Technologies (Invitrogen) SelectScreen, Z'-LYTE / Adapta
Summary of the method: as §1

GSK3-alpha_h = molecular target: T11, GSK3-alpha_h (Homo sapiens, UniProt P49840); details: KM ATP, read-out: % control
T11 construct: purchased Life Technologies (Invitrogen) SelectScreen, Z'-LYTE / Adapta
T11 sequence (P49840 whole entry): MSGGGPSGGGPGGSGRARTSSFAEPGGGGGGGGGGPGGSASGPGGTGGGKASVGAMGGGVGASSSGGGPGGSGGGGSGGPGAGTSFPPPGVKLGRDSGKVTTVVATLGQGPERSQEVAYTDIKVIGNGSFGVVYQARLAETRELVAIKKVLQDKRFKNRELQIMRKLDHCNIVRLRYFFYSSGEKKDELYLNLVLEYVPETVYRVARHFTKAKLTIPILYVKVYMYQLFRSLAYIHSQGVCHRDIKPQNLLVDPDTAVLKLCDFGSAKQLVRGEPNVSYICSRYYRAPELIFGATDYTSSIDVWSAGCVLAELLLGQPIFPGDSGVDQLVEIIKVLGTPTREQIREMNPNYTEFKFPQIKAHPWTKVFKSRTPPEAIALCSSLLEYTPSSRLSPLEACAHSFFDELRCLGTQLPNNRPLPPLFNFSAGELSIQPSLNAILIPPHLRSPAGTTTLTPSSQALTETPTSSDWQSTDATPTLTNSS
Summary of the method: as §1

HIPK4_h = molecular target: T12, HIPK4_h (Homo sapiens, UniProt Q8NE63); details: KM ATP, read-out: % control
T12 construct: purchased Life Technologies (Invitrogen) SelectScreen, Z'-LYTE / Adapta
Summary of the method: as §1

IKK1_h = molecular target: T13, IKK1_h (Homo sapiens, UniProt O15111); details: KM ATP, read-out: % control
T13 construct: purchased Life Technologies (Invitrogen) SelectScreen, Z'-LYTE / Adapta
T13 sequence (O15111 whole entry): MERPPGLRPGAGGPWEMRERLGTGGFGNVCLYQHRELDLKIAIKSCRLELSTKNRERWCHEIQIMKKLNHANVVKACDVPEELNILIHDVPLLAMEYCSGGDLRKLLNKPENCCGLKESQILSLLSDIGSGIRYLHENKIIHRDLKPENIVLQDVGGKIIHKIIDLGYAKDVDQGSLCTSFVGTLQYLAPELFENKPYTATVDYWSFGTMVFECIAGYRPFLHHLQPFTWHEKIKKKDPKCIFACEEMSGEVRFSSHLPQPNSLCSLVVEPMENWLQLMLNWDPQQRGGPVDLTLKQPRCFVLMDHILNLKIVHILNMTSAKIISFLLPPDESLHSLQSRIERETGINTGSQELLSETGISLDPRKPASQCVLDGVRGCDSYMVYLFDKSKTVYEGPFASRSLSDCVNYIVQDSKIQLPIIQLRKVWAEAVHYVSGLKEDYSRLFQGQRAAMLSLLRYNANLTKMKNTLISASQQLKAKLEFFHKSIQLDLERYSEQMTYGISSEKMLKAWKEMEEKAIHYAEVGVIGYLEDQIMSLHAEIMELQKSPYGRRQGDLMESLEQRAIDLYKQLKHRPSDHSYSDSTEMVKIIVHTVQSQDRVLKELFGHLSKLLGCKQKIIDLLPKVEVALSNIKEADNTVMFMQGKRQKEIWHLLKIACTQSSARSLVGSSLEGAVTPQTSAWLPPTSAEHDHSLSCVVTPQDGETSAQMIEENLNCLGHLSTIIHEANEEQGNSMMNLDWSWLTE
Summary of the method: as §1

JAK2-JH1-JH2_V617F_h = molecular target: T14, JAK2-JH1-JH2_V617F_h (Homo sapiens, UniProt O60674, V617F); details: KM ATP, read-out: % control
T14 construct: purchased Life Technologies (Invitrogen) SelectScreen, Z'-LYTE / Adapta
T14 sequence (O60674 532-1132 V617F limits assumed): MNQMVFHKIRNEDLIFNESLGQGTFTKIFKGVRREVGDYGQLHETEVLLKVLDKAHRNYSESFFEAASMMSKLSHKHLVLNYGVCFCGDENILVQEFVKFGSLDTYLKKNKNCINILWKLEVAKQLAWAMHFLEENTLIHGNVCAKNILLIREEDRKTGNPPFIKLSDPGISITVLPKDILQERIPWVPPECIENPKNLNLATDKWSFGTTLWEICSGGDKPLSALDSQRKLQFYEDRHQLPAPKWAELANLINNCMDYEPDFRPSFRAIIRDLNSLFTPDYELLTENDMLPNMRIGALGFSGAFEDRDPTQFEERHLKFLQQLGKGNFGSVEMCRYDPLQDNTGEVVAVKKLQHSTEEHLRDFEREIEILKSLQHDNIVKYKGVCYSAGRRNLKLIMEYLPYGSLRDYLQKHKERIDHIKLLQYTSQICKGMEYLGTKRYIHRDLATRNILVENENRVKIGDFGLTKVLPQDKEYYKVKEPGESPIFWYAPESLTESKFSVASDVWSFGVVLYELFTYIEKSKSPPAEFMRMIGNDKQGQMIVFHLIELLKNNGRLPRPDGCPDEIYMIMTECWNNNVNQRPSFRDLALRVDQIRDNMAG
Summary of the method: as §1

JAK2_h = JAK2_h (Homo sapiens, UniProt O60674)
Chain of JAK2_h (O60674 whole entry): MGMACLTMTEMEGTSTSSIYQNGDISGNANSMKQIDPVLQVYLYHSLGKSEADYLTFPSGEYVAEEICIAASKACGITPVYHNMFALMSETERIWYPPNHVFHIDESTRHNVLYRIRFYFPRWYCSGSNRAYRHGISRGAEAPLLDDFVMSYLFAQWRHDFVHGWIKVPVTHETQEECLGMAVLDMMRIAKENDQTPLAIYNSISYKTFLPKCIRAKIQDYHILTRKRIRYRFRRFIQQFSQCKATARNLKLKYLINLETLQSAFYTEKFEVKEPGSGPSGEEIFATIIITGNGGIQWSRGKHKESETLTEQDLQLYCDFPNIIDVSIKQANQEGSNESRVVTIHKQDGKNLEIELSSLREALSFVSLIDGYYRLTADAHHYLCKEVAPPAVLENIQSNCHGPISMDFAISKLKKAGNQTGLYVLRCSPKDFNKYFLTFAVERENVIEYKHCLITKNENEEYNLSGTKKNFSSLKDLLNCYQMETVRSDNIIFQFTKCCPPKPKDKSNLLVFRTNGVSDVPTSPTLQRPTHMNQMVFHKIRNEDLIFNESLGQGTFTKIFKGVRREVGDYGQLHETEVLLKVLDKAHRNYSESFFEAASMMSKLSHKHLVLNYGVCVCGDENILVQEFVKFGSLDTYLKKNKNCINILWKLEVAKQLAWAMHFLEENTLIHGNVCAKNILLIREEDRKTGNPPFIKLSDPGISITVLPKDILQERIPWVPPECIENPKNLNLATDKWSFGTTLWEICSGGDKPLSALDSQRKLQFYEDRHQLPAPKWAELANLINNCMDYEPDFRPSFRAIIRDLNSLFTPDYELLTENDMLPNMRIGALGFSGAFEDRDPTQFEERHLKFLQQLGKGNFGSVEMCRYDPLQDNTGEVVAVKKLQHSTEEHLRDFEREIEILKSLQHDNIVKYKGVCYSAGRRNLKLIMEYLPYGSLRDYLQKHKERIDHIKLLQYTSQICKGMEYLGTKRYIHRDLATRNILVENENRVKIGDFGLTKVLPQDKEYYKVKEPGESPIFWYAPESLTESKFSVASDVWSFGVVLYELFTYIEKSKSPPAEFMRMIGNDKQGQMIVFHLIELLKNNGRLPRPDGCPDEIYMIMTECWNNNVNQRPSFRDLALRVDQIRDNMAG
Summary of the method: as §1

JNK2-alpha2_h = molecular target: T15, JNK2-alpha2_h (Homo sapiens, UniProt P45984); details: 100 µM ATP, read-out: % control
T15 construct: purchased Life Technologies (Invitrogen) SelectScreen, Z'-LYTE / Adapta
Summary of the method: as §1

LYN-A_h = LYN-A_h (Homo sapiens, UniProt P07948)
Chain of LYN-A_h (P07948 whole entry): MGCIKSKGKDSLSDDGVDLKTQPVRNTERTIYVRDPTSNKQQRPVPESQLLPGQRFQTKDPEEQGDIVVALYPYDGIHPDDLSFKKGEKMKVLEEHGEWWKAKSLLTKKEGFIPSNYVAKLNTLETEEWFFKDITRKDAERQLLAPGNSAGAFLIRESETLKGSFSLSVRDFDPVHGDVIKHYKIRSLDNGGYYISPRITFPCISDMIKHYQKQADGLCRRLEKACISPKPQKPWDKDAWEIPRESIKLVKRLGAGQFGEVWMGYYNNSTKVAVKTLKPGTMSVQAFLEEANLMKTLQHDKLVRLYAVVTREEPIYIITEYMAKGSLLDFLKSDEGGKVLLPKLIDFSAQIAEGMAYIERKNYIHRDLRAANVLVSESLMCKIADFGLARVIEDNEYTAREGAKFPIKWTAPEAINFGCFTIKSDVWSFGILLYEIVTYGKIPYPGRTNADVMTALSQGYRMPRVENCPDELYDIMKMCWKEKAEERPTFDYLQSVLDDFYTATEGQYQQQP
Summary of the method: as §1

MAPK1_h = molecular target: T16, MAPK1_h (Homo sapiens, UniProt P28482); details: KM ATP, read-out: % control
T16 construct: purchased Life Technologies (Invitrogen) SelectScreen, Z'-LYTE / Adapta
Summary of the method: as §1

MARK3_h = molecular target: T17, MARK3_h (Homo sapiens, UniProt P27448); details: KM ATP, read-out: % control
T17 construct: purchased Life Technologies (Invitrogen) SelectScreen, Z'-LYTE / Adapta
Summary of the method: as §1

MYLK2_h = molecular target: T18, MYLK2_h (Homo sapiens, UniProt Q9H1R3); details: KM ATP, read-out: % control
T18 construct: purchased Life Technologies (Invitrogen) SelectScreen, Z'-LYTE / Adapta
Summary of the method: as §1

Mer_h = molecular target: T19, Mer_h (Homo sapiens, UniProt Q12866); details: KM ATP, read-out: % control
T19 construct: purchased Life Technologies (Invitrogen) SelectScreen, Z'-LYTE / Adapta
Summary of the method: as §1

NEK2_h = molecular target: T20, NEK2_h (Homo sapiens, UniProt P51955); details: KM ATP, read-out: % control
T20 construct: purchased Life Technologies (Invitrogen) SelectScreen, Z'-LYTE / Adapta
Summary of the method: as §1

PAK6_h = molecular target: T21, PAK6_h (Homo sapiens, UniProt Q9NQU5); details: KM ATP, read-out: % control
T21 construct: purchased Life Technologies (Invitrogen) SelectScreen, Z'-LYTE / Adapta
Summary of the method: as §1

PDGFR-alpha_D842V_h = molecular target: T22, PDGFR-alpha_D842V_h (Homo sapiens, UniProt P16234, D842V); details: KM ATP, read-out: % control
T22 construct: purchased Life Technologies (Invitrogen) SelectScreen, Z'-LYTE / Adapta
Summary of the method: as §1

PDGFR-alpha_V561D_h = molecular target: T23, PDGFR-alpha_V561D_h (Homo sapiens, UniProt P16234, V561D); details: KM ATP, read-out: % control
T23 construct: purchased Life Technologies (Invitrogen) SelectScreen, Z'-LYTE / Adapta
Summary of the method: as §1

PDK1_h = molecular target: T24, PDK1_h (Homo sapiens, UniProt O15530); details: read-out: % control
T24 construct: purchased Life Technologies (Invitrogen) SelectScreen, Z'-LYTE / Adapta
T24 sequence (O15530 whole entry): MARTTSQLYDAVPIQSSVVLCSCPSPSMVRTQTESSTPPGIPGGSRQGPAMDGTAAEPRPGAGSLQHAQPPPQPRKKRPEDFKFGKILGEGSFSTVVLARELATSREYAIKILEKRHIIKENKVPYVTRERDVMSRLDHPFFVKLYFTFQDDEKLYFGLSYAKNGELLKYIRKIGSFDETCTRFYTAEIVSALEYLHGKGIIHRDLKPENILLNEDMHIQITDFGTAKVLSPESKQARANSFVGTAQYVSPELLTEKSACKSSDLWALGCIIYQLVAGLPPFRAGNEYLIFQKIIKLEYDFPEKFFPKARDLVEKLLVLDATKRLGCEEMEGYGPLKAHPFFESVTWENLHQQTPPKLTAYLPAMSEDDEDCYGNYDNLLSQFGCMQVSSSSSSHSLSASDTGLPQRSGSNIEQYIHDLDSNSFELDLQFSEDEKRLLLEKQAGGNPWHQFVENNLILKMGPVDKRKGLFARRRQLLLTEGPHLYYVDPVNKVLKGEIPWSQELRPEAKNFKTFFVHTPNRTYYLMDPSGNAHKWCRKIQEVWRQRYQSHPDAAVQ
Summary of the method: as §1

PKB-beta_h = molecular target: T25, PKB-beta_h (Homo sapiens, UniProt P31751); details: KM ATP, read-out: % control
T25 construct: purchased Life Technologies (Invitrogen) SelectScreen, Z'-LYTE / Adapta
Summary of the method: as §1

PKD2_h = molecular target: T26, PKD2_h (Homo sapiens, UniProt Q9BZL6); details: KM ATP, read-out: % control
T26 construct: purchased Life Technologies (Invitrogen) SelectScreen, Z'-LYTE / Adapta
Summary of the method: as §1

SRMS_h = molecular target: T27, SRMS_h (Homo sapiens, UniProt Q9H3Y6); details: KM ATP, read-out: % control
T27 construct: purchased Life Technologies (Invitrogen) SelectScreen, Z'-LYTE / Adapta
Summary of the method: as §1

SRPK2_h = molecular target: T28, SRPK2_h (Homo sapiens, UniProt P78362); details: KM ATP, read-out: % control
T28 construct: purchased Life Technologies (Invitrogen) SelectScreen, Z'-LYTE / Adapta
Summary of the method: as §1

STK25_h = molecular target: T29, STK25_h (Homo sapiens, UniProt O00506); details: KM ATP, read-out: % control
T29 construct: purchased Life Technologies (Invitrogen) SelectScreen, Z'-LYTE / Adapta
Summary of the method: as §1

p38-delta_h = molecular target: T30, p38-delta_h (Homo sapiens, UniProt O15264); details: KM ATP, read-out: % control
T30 construct: purchased Life Technologies (Invitrogen) SelectScreen, Z'-LYTE / Adapta
T30 sequence (O15264 whole entry): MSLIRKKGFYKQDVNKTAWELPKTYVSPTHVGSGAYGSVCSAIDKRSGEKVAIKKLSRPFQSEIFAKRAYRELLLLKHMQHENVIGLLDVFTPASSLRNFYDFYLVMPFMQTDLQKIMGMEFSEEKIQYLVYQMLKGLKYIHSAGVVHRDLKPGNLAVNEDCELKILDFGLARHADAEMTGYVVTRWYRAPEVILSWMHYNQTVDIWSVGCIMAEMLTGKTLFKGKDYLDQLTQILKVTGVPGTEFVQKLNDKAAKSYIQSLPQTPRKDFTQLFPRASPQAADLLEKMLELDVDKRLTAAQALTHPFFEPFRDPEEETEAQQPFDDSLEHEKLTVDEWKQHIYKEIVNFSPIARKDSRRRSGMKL
Summary of the method: as §1

[1] = 3 µM, KM ATP, read-out: % control
[2] = 10-point dose-response, commercial vendor

Chain of Aurora-B_h (Q96GD4 whole entry): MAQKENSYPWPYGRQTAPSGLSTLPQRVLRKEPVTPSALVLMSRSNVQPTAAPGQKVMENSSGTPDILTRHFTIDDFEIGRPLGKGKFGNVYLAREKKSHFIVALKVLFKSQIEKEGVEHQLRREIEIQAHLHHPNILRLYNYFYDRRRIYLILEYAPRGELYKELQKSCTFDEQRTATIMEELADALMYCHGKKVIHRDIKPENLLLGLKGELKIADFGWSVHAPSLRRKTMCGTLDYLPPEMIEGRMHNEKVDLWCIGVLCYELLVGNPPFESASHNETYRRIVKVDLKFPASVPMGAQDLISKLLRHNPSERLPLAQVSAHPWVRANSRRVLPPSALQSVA

## c1cc(CC2CCOCC2)n2nc(Nc3ccc4c(NC5CCOCC5)n[nH]c4c3)nc2c1 [CC-509, [3-(2H-3,4,5,6-tetrahydropyran-4-ylamino)(1H-indazol-6-yl)][5-(2H-3,4,5,6-tetrahydropyran-4-ylmethyl)(2H-1,2,4-triazolo[1,5-a]pyridin-2-yl)]amine]
Aurora-B_h; [1]
  remaining activity at 3 µM: 14%
Aurora-B_h; [2]
  pIC50: 6.39
Aurora-C_h
  remaining activity at 3 µM: 18%
BRAF
  remaining activity at 3 µM: 83%
BTK_h
  remaining activity at 3 µM: 72%
CDK7_h
  remaining activity at 3 µM: 94%
CK1-epsilon_h
  remaining activity at 3 µM: 89%
CK1-gamma2_h
  remaining activity at 3 µM: 68%
CLK2_h
  remaining activity at 3 µM: 50%
CaMKII-alpha_h
  remaining activity at 3 µM: 80%
DAPK1_h
  remaining activity at 3 µM: 104%
FGFR2_h
  remaining activity at 3 µM: 46%
GSK3-alpha_h
  remaining activity at 3 µM: 91%
HIPK4_h
  remaining activity at 3 µM: 100%
IKK1_h
  remaining activity at 3 µM: 106%
JAK2-JH1-JH2_V617F_h
  remaining activity at 3 µM: 8%
JAK2_h; [1]
  remaining activity at 3 µM: 4%
JAK2_h; [2]
  pIC50: 7.72
JNK2-alpha2_h
  remaining activity at 3 µM: 88%
LYN-A_h; [1]
  remaining activity at 3 µM: 54%
LYN-A_h; [2]
  pIC50: 5.45
MAPK1_h
  remaining activity at 3 µM: 94%
MARK3_h
  remaining activity at 3 µM: 42%
MYLK2_h
  remaining activity at 3 µM: 80%
Mer_h
  remaining activity at 3 µM: 90%
NEK2_h
  remaining activity at 3 µM: 101%
PAK6_h
  remaining activity at 3 µM: 91%
PDGFR-alpha_D842V_h
  remaining activity at 3 µM: 9%
PDGFR-alpha_V561D_h
  remaining activity at 3 µM: 0%
PDK1_h; 100 µM ATP
  remaining activity at 3 µM: 78%
PDK1_h; KM ATP
  remaining activity at 3 µM: 47%
PKB-beta_h
  remaining activity at 3 µM: 98%
PKD2_h
  remaining activity at 3 µM: 52%
SRMS_h
  remaining activity at 3 µM: 90%
SRPK2_h
  remaining activity at 3 µM: 111%
STK25_h
  remaining activity at 3 µM: 97%
p38-delta_h
  remaining activity at 3 µM: 82%

Source: paper PMC4710522, “A Novel Triazolopyridine-Based Spleen Tyrosine Kinase Inhibitor That Arrests Joint Inflammation” (PLoS ONE, 2016)
